# According to patent publication US9149441B2 (priority 2008, dated 2015):
# What was measured:
# [1] = test system: E. Coli; assay: Gentamicin formulations in E. Coli septic shock (peritonitis) rat model; format: in vivo; conditions: for % inhibition of the bacterial growth in the blood / Bact. count (cfu/mL): 120 hrs; for Bact. count (cfu/mL): blood; for Survival: peritonitis rat model (Table 5)
# Procedure: Gentamicin in the solution and the nanosphere form were tested on rats in order to evaluate the E. Coli distribution in the body, also the two formulations were evaluated in septic shock rat models.
# Group 1. Determination of the efficacy of the encapsulated and solution formulation of gentamicin. [Pre-treatment Group].
# (§1) The nanospheres and solution gentamicin formulations (15 mg/kg twice/day for 3 days) or blank nanospheres (control) were injected to different groups of animals 4 hrs prior to the animals being injected with E. Coli (i.p.; 1.1×10^9 cfu/mL). Blood samples were obtained to determine the bacterial count at 0, 4, 24, 48, 96 and 120 hrs.
# Group 2. Determination of the efficacy of the encapsulated and solution formulations of gentamicin. [Simultaneous treatment Group]
# (§2) In this set of experiments, E. Coli bacteria (1.1×10^9 cfu/mL) were administered i.p. and simultaneously the NS and solution gentamicin formulations (15 mg/kg twice/day for 3 days) or blank nanospheres (control) were injected subcutaneously to different groups of rats. Blood samples were obtained to determine the bacterial count at 0, 4, 24, 48, 96 and 120 hrs.
# Group 3. Determination of the efficacy of the nanosphere and solution formulation of gentamicin. [Delayed treatment Group].
# as §2, with “i.p. to different groups of rats” for “i.p.”, “4 hrs following infection” for “simultaneously”, “injected.” for “injected subcutaneously to different groups of rats.”
# [2] = test system: S. Aureus; assay: Vancomycin formulations in S. Aureus septic shock rat model; format: in vivo; conditions: for Survival: simultaneous treatment group, peritonitis rat model (Table 8), 15 mg/kg twice/day for 3 days
# Procedure: The efficacy of vancomycin nanospheres as compared to the solution formulation was determined in a septic shock rat model.
# Three scenarios were evaluated:
# Group 1. Determination of the efficacy of the encapsulated and solution formulation of vancomycin. [Pre-treatment Group].
# as §1, with “vancomycin” for “gentamicin”, “S. Aureus” for “E. Coli”, “1.0×10^8” for “1.1×10^9”, “samples (0.5 mL)” for “samples”
# Group 2. Determination of the efficacy of the encapsulated and solution formulations of vancomycin. [Simultaneous treatment Group]
# as §2, with “S. Aureus” for “E. Coli”, “(1.0×10^8” for “(1.1×10^9”, “samples (0.5 mL)” for “samples”
# Group 3. Determination of the efficacy of the nanosphere and solution formulation of vancomycin. [Delayed treatment Group].
# In this set of experiments, S. Aureus bacteria (1.0×10^8 cfu/mL) were administered i.p. to different groups of rats and 4 hrs following infection the NS and solution gentamicin formulations (15 mg/kg twice/day for 3 days) or blank nanospheres (control) were injected. Blood samples (0.5 mL) were obtained to determine the bacterial count at 0, 4, 24, 48, 96 and 120 hrs.
# [3] = test system: red blood cells (RBCs); assay: Potassium release from red blood cells (membrane toxicity); format: cell-based; conditions: all experimental concentrations; solution effect rising up to 0.08 mg/ml
# Text: Potassium is found in high concentrations inside the red blood cells (RBCs). Any damage to membrane will result in leaking out of potassium from the RBCs.
Compound,"% inhibition of the bacterial growth in the blood ([1]; delayed treatment group (Table 7), listed as Solution)","% inhibition of the bacterial growth in the blood ([1]; delayed treatment group (Table 7), listed as gentamicin solution)",% inhibition of the bacterial growth in the blood ([1]; prophylactic treatment group (Table 6)),% inhibition of the bacterial growth in the blood ([1]; simultaneous treatment group (Table 4)),"% inhibition of the bacterial growth in the blood ([1]; simultaneous treatment group (Table 4), listed as gentamicin solution)",Bact. count (cfu/mL) ([1]; delayed treatment group),"Bact. count (cfu/mL) ([1]; simultaneous treatment group, 15 mg/kg twice/day for 3 days)",Survival ([1]; simultaneous treatment group),"Survival ([1]; simultaneous treatment group, listed as gentamicin solution)",Survival [2],"Bacterial count in the blood vs blank BSA nanospheres ([2]; text Group 3, FIG. 16 (delayed treatment))",Potassium release from RBCs [3],"Bacterial count in the blood vs blank BSA nanospheres ([2]; text Group 1, FIG. 14 (prophylactic treatment))","Bacterial count in the blood vs blank BSA nanospheres ([2]; text Group 2, FIG. 15 (simultaneous treatment))"
gentamicin [Gentamicin Solution],15%,about 15%,about 35%,75%,about 75%,110 cfu/mL,35 cfu/mL,35%,55%,40%,significant lower bacterial count,–,–,–
"C[C@@H]1[C@H](O)[C@@H](C)/C=C/C=C/C=C/C=C/C=C/C=C/C=C/[C@H](O[C@@H]2O[C@H](C)[C@@H](O)[C@H](N)[C@@H]2O)C[C@@H]2O[C@](O)(C[C@@H](O)C[C@@H](O)[C@H](O)CC[C@@H](O)C[C@@H](O)CC(=O)O[C@H]1C)C[C@H](O)[C@H]2C(=O)O [solution formulation of Amphotericin B, Amphotericin B]",–,–,–,–,–,–,–,–,–,–,–,significant release of potassium from the RBCs,–,–
"CN[C@H](CC(C)C)C(=O)N[C@H]1C(=O)N[C@@H](CC(N)=O)C(=O)N[C@H]2C(=O)N[C@H]3C(=O)N[C@H](C(=O)N[C@H](C(=O)O)c4cc(O)cc(O)c4-c4cc3ccc4O)[C@H](O)c3ccc(c(Cl)c3)Oc3cc2cc(c3O[C@@H]2O[C@H](CO)[C@@H](O)[C@H](O)[C@H]2O[C@H]2C[C@](C)(N)[C@H](O)[C@H](C)O2)Oc2ccc(cc2Cl)[C@H]1O [Vancomycin Solution, vancomycin]",–,–,–,–,–,–,–,–,–,40%,–,–,significant lower bacterial count,significant lower bacterial count
